Measured values taken from US20160256398A1 (H. Lundbeck A/S, priority 2009, published 2016).
“Also recorded” adds a separate entry of the source.

Columns and labels:
[1] = 5-way crossover study in healthy volunteers: adverse events by administration form; assay type: in vivo, human
Source text: (§1) 23 subject (12 men and 11 women) participated in the trial; due to drop-outs however, not all 23 subjects received all five treatments—see below for details.
The proximal small bowel is approximately the first meter of the jejunum, and the distal small bowel is approximately the last meter of the ileum, including terminal ileum up to the ileo-caecal junction.
The Enterion™ capsule allows targeted delivery of an active substance into any region of the GI tract. The capsule contains a drug reservoir and a separate compartment for a radioactive tracer. The floor of the reservoir acts a piston which is held back against a spring by a polymer filament. By means of gamma scintigraphy (an imaging technique) the exact position of the capsule in the GI tract can be determined real-time. When the capsule has reached its desired position in the GI tract, a magnetic field is applied which causes an antenna in the capsule all to heat up. The heated antenna is in contact with the polymer filament which softens and eventually breaks which sets the piston (reservoir floor) free and rapidly releases the drug. The Enterion™ capsule is available from Partner Tech, UK.
(§2) Blood samples were obtained at regular intervals 240 hours post-dosing of the IR tablet, post-start of the infusion and post-activation of the Enterion™ capsule. […] Additionally, adverse events were recorded. Food (soup) was provided 4 hours post-dose and dinner 10 hours post-dose.
All 23 subjects received treatments A and B; 22 subjects received treatment C; 20 subjects received treatment D; and 19 received treatment E.
The table below summarises the adverse events recorded during the course of the trial.

[2] = 5-way crossover study in healthy volunteers: plasma concentration-time profile; assay type: in vivo, human
Experimental: as §1, §2
The plasma concentration time profiles are depicted in FIG. 1.

[3] = test system: acetylcholine, norepinephrine, dopamine, and serotonin in brain regions associated with mood regulation; conditions: extracellular levels in rat brains; cited from earlier work
[4] = cited from earlier work
[5] = depressed patients; cited from earlier work
[6] = Regimen B: 20 mg, single oral dose, two 10 mg IR tablets, 23 subjects
[7] = Regimen C: 9 mg iv infusion over 6 hours, 22 subjects
[8] = Regimen D: 20 mg solution via Enterion capsule to proximal small bowel, 20 subjects
[9] = Regimen E: 20 mg solution via Enterion capsule to distal small bowel, 19 subjects

Question: For `Br.Cc1ccc(Sc2ccccc2N2CCNCC2)c(C)c1` [Compound I HBr, 1-[2-(2,4-dimethyl-phenylsulfanyl)-phenyl]piperazine hydrobromide], which Abdominal pain [1, 6] is on record?
Answer: 2 no of subjects

Question: What about the Fatigue [1, 6] of the same compound?
Answer: 2 no of subjects

Question: And the Headache [1, 6]?
Answer: 3 no of subjects

Question: And the “Lightheadedness/postural dizziness (no BP drop)” value [1, 6]?
Answer: 5 no of subjects

Question: And the Nausea [1, 6]?
Answer: 9 no of subjects

Question: What about the Retching [1, 6] of the same compound?
Answer: 1 no of subjects

Question: And the Vomiting [1, 6]?
Answer: 2 no of subjects

Question: And the “Abnormal liver function tests” value [1, 7]?
Answer: 1 no of subjects

Question: What about the Headache [1, 7] of the same compound?
Answer: 2 no of subjects

Question: What about the Nausea [1, 7] of the same compound?
Answer: 1 no of subjects

Question: And the Postural hypotension [1, 7]?
Answer: 2 no of subjects

Question: What about the Abdominal pain [1, 8] of the same compound?
Answer: 1 no of subjects

Question: And the Headache [1, 8]?
Answer: 1 no of subjects

Question: What about the “Lightheadedness/postural dizziness (no BP drop)” value [1, 8] of the same compound?
Answer: 1 no of subjects

Question: What about the Nausea [1, 8] of the same compound?
Answer: 3 no of subjects

Question: And the Postural hypotension [1, 8]?
Answer: 1 no of subjects

Question: What about the Pruritis [1, 8] of the same compound?
Answer: 1 no of subjects

Question: And the Vomiting [1, 8]?
Answer: 1 no of subjects

Question: What about the Abdominal pain [1, 9] of the same compound?
Answer: 1 no of subjects

Question: What about the Nausea [1, 9] of the same compound?
Answer: 2 no of subjects

Question: What about the Postural hypotension [1, 9] of the same compound?
Answer: 3 no of subjects

Question: What about the Rash [1, 9] of the same compound?
Answer: 1 no of subjects

Question: What does the source list for `Cc1ccc(Sc2ccccc2N2CCNCC2)c(C)c1` [Compound I, 1-[2-(2,4-dimethyl-phenylsulfanyl)-phenyl]piperazine]?
Answer: plasma concentration-time profile, dependence on administration form ([2]; IR tablet versus release in the small intestine (FIG. 1, regimens B, D, E)): virtually independent on whether Compound I is administered in an IR tablet or released in the small intestine; characteristics of plasma concentration-time profile ([2]; administration in an IR composition): relative late tmax and a plasma concentration plateau around tmax; levels of acetylcholine, norepinephrine (noradrenaline), dopamine and serotonin in brain [3]: increase; also recorded: significant increases; overall number of adverse events ([1]; regimen B, IR tablet): most adverse events; overall number of adverse events ([1]; regimen C, D and E: i.v. infusion, released in the proximal or distal small bowel): markedly lower number of adverse events; sleep and sexually related adverse events in depressed patients ([4]; clinical trials disclosed in WO 2008/113359): surprisingly low level; efficacy in the treatment of major depressive disorder ([4]; dosed at 5 and 10 mg): efficacious; safety and tolerability in first clinical trial ([4]; dosed at 5 and 10 mg): safe and well-tolerated

Question: Which results are given for `Fc1ccc([C@@H]2CCNC[C@H]2COc2ccc3c(c2)OCO3)cc1` [paroxetine]?
Answer: nausea with enteric coated, sustained release tablet compared with IR tablet [5]: less nausea; other GI related adverse events such as diarrhea, abnormal ejaculation, female genital disorders and dizziness with enteric coated tablet compared with IR tablet [5]: appeared to increase
